Data set [1] can be described thus: 1-octanol-aqueous buffer distribution coefficient, log D of the compound at pH 7.4. The class given is physicochemical.
Data set [2] in a line: Apparent permeability across apical to basolateral side in human Caco2 cells at pH 7.4. It counts as ADME, cell-based. The following applies: Caco-2, pH 7.4. Background: Caco-2 monolayers are a common model of the intestinal barrier.
Data set [3] is described as follows: Apparent permeability across basolateral to apical side in human Caco2 cells at pH 7.4. The class given is ADME, cell-based. As to conditions: Caco-2, pH 7.4; call rule not given here.
Data set [4] in a line: Volume of distribution at steady state in iv dosed Harlan-Han Wistar rat. It counts as ADME, organism-based. The following applies: in vivo, read-out: Vdss.
A short description of data set [5]: Oral bioavailability in Harlan-Han Wistar rat. The class given is ADME, organism-based. As to conditions: in vivo.
Data set [6] can be described thus: Volume of distribution at steady state in iv dosed dog. As to conditions: in vivo, read-out: Vdss. The class given is ADME, organism-based, Canis lupus familiaris.
Data set [7] in a line: Oral bioavailability in dog. The class given is ADME, organism-based, Canis lupus familiaris. The following applies: in vivo.
Data set [8] in a line: Drug absorption in po dosed hamster. It counts as ADME, organism-based. As to conditions: cricetinae, in vivo.
Data set [9] in a line: Drug absorption in po dosed mouse. The class given is ADME, organism-based. As to conditions: in vivo.
Data set [10] can be described thus: Drug absorption in po dosed rat. The class given is ADME, organism-based. As to conditions: in vivo.
The nature of data set [11]: Apparent permeability in human jejunum. It counts as ADME, tissue-based.
Data set [12] is described as follows: Apparent permeability in rat jejunum. The class given is ADME, tissue-based.

Molecules are shown by their SMILES. Where only a bound is given, the exact number is not on record here.

A word on the logD: it is lipophilicity at a set pH, counting ionised and neutral species. In turn, `Cc1ccc2[nH]c(C(=O)N[C@H]3CN(S(=O)(=O)c4ccccc4)CC[C@H]3C(=O)NCCN(C)C)cc2c1` (racemic) came in with a logD in data set [1] of 1.9.

For `Cc1ccc2[nH]c(C(=O)N[C@H]3CN(S(=O)(=O)c4ccnnc4)C[C@@H]3C(=O)NCCN(C)C)cc2c1`, in data set [1], the logD stood at 0.7.

`Cc1ccc2[nH]c(C(=O)N[C@H]3CN(S(=O)(=O)c4cnccn4)C[C@@H]3C(=O)NCCN(C)C)cc2c1` had a logD in data set [1] of 1.

Regarding `Cc1ccc2[nH]c(C(=O)N[C@H]3CCN(C(=O)c4cccnc4)C[C@@H]3C(=O)NCCN(C)C)cc2c1` (racemic), the logD in data set [1] was determined as 0.7.

`Cc1ccc2[nH]c(C(=O)N[C@H]3CN(S(=O)(=O)c4ccccc4)C[C@@H]3C(=O)NCCN(C)C)cc2c1` had a logD in data set [1] of 2.1.

Broadly, the Papp A→B is how fast a substance crosses the layer from the apical side. Usually Papp B→A stands for how fast a substance crosses the layer from the basolateral side. Regarding `Cc1ccc2[nH]c(C(=O)N[C@H]3CCN(S(=O)(=O)c4ccccc4Cl)C[C@@H]3C(=O)N[C@H]3CCCN(C)C3)cc2c1`, in data set [1], the logD is 3.1. In data set [2], the Papp A→B stood at 0.27 ×10⁻⁶ cm/s. The Papp B→A in [3] was determined as 15.9 ×10⁻⁶ cm/s.

On to `Cc1ccc2[nH]c(C(=O)N[C@H]3CN(S(=O)(=O)c4ccccc4)C[C@@H]3C(=O)NC[C@H]3CCCN3C)cc2c1`, for which the logD in data set [1] turned out to be 2.3. Further, the Papp A→B in [2] worked out at 0.08 ×10⁻⁶ cm/s. In data set [3], the Papp B→A was determined as 2.7 ×10⁻⁶ cm/s.

`Cc1ccc2[nH]c(C(=O)N[C@H]3CN(S(=O)(=O)c4ccccc4)C[C@@H]3C(=O)NC[C@H]3CCCN3)cc2c1` registered a logD in data set [1] of 1. In addition, the Papp A→B in data set [2] was 0.11 ×10⁻⁶ cm/s. In [3], the Papp B→A was 15.9 ×10⁻⁶ cm/s.

With `Cc1ccc2[nH]c(C(=O)N[C@H]3CCN(S(=O)(=O)c4ccccc4)C[C@@H]3C(=O)NCCN(C)C)cc2c1`, the logD in data set [1] was in the range of 2.2 to 2.3.

`Cc1ccc2[nH]c(C(=O)N[C@H]3CCN(S(=O)(=O)N4CCOCC4)C[C@@H]3C(=O)NCCN(C)C)cc2c1` (racemic): the logD in data set [1] was 1.

For orientation: bioavailability means the share of a dose that reaches the circulation, judged against a reference dose that is usually intravenous. The low end stands for poor availability, the high end for good availability. In general, Papp refers to the rate of passage across a membrane or cell layer, normalised by area and donor concentration. Take `O=C(N[C@H]1CN(S(=O)(=O)c2ccccc2)C[C@@H]1C(=O)N[C@H]1CCCNC1)c1cc(-c2ccccc2Cl)on1`: the logD in data set [1] came out at 1.9. For the same compound, in data set [2], the Papp A→B was found to be 0.31 ×10⁻⁶ cm/s. Besides, the Vd was determined as 5.5 L/kg in [4] and 6.6 L/kg in [6]. For the same compound, the bioavailability in [5] was less than 1%; in data set [7], 40%. The Drug absorption result in data set [8], in data set [9] and in data set [10] was “Not Active” throughout. The Papp in [11] and in data set [12] was less than 1 ×10⁻⁶ cm/s each time.

In turn, `Cc1ccc2[nH]c(C(=O)N[C@H]3CN(S(=O)(=O)c4cn(C)nc4C)C[C@@H]3C(=O)NCCN(C)C)cc2c1` returned a logD in [1] of 1.4.

In [1], `Cc1ccc2[nH]c(C(=O)N[C@H]3CN(S(=O)(=O)c4ccccc4)C[C@@H]3C(=O)NC[C@@H]3CCCN3C)cc2c1` returned a logD of 2.3. Further, the Papp A→B in [2] amounted to 0.24 ×10⁻⁶ cm/s. In addition, in [3], the Papp B→A came to 19.3 ×10⁻⁶ cm/s.

`Cc1ccc2[nH]c(C(=O)N[C@H]3CN(S(=O)(=O)c4ccccc4)C[C@@H]3C(=O)N[C@H]3CCCN(C)C3)cc2c1`: the logD in data set [1] was determined as 2.7. In addition, in [2], the Papp A→B was 0.3 ×10⁻⁶ cm/s. Moreover, in data set [3], the Papp B→A stood at 16.3 ×10⁻⁶ cm/s.

In turn, `Cc1ccc2[nH]c(C(=O)N[C@H]3CCN(S(=O)(=O)N(C)C)C[C@@H]3C(=O)NCCN(C)C)cc2c1` showed a logD in data set [1] of 1.2.

For `Cc1ccc2[nH]c(C(=O)N[C@H]3CN(S(=O)(=O)c4ccccc4)C[C@H]3C(=O)NCCN(C)C)cc2c1` (racemic), in data set [1], the logD came to 2.3.

`Cc1ccc2[nH]c(C(=O)N[C@@H]3CCN(S(=O)(=O)c4ccccc4)C[C@@H]3C(=O)NCCN(C)C)cc2c1` (racemic) returned a logD in data set [1] of 2.1.

The compound `Cc1ccc2[nH]c(C(=O)N[C@H]3CCN(S(=O)(=O)c4ccccc4Cl)C[C@@H]3C(=O)N[C@H]3CCCNC3)cc2c1` yielded a logD in data set [1] of 1.9. Moreover, the Papp A→B in data set [2] is less than 0.01 ×10⁻⁶ cm/s. Moreover, the Papp B→A in data set [3] was 1.4 ×10⁻⁶ cm/s.

Take `Cc1ccc2[nH]c(C(=O)N[C@H]3Cc4ccccc4[C@@H]3C(=O)NCCN(C)C)cc2c1`: in data set [1], the logD came to 2.4.

The compound `Cc1ccc2[nH]c(C(=O)N[C@H]3CN(S(=O)(=O)C4CCOCC4)C[C@@H]3C(=O)NCCN(C)C)cc2c1` gave a logD in data set [1] of 1.

For `Cc1csc(C(=O)N[C@H]2CN(S(=O)(=O)c3ccccc3)C[C@@H]2C(=O)N[C@H]2CCCNC2)n1`, the logD in data set [1] was 0.1. In addition, the apparent permeability from apical to basolateral (Papp A→B) in data set [2] turned out to be 0.18 ×10⁻⁶ cm/s.

In data set [1], `Cc1ccc2[nH]c(C(=O)N[C@H]3CN(S(=O)(=O)c4ccccc4)CC[C@@H]3C(=O)NCCN(C)C)cc2c1` (racemic) yielded a logD of 1.9.

With `Cc1ccc2[nH]c(C(=O)N[C@H]3CN(S(=O)(=O)c4ccccc4)C[C@@H]3C(=O)N[C@@H]3CCCN(C)C3)cc2c1`, the logD in [1] came out at 2.7. For the same compound, the Papp A→B in [2] came out at 0.76 ×10⁻⁶ cm/s. The Papp B→A in [3] came out at 22.8 ×10⁻⁶ cm/s.

`Cc1ccc2[nH]c(C(=O)N[C@H]3CN(S(=O)(=O)c4ccnc(C)c4)C[C@@H]3C(=O)NCCN(C)C)cc2c1` came in with a logD in data set [1] of 1.7.

In data set [1], `Cc1ccc2[nH]c(C(=O)N[C@H]3CCN(S(=O)(=O)C4CC4)C[C@@H]3C(=O)NCCN(C)C)cc2c1` had a logD of 1.

`Cc1ccc2[nH]c(C(=O)N[C@H]3CCN(S(=O)(=O)c4cccnc4)C[C@@H]3C(=O)NCCN(C)C)cc2c1` (racemic) came in with a logD in [1] of 1.3.

On to `Cc1ccc2[nH]c(C(=O)N[C@H]3CCN(S(=O)(=O)N4CCCCC4)C[C@@H]3C(=O)NCCN(C)C)cc2c1`, for which, in data set [1], the logD was 2.3.

Consider `Cc1ccc2[nH]c(C(=O)N[C@H]3CN(S(=O)(=O)c4ccccc4)C[C@@H]3C(=O)N[C@H]3CCCNC3)cc2c1`, for which the log distribution coefficient (logD) in [1] came to 1.3. Besides, the Papp A→B in data set [2] amounted to 0.04 ×10⁻⁶ cm/s. Also, the basolateral-to-apical permeability (Papp B→A) in data set [3] worked out at 2 ×10⁻⁶ cm/s.

Take `Cc1ccc2[nH]c(C(=O)N[C@H]3CN(S(=O)(=O)c4ccccc4)C[C@@H]3C(=O)N[C@@H]3CCCNC3)cc2c1`: the log distribution coefficient (logD) in [1] came to 1.3. Moreover, the Papp A→B in data set [2] is 0.04 ×10⁻⁶ cm/s. For the same compound, in [3], the Papp B→A worked out at 1.6 ×10⁻⁶ cm/s.

Regarding `Cc1ccc2[nH]c(C(=O)N[C@H]3CN(S(=O)(=O)c4cccnc4)C[C@@H]3C(=O)NCCN(C)C)cc2c1`, the logD in [1] was found to be 1.4.

In turn, `Cc1ccc2[nH]c(C(=O)N[C@@H]3CCN(S(=O)(=O)c4ccccc4)C[C@H]3C(=O)NCCN(C)C)cc2c1` gave a logD in data set [1] of 2.3.

In turn, `Cc1ccc2[nH]c(C(=O)N[C@@H]3CN(S(=O)(=O)c4ccccc4)C[C@H]3C(=O)NCCN(C)C)cc2c1` registered a log distribution coefficient (logD) in data set [1] of 2.1.

(Values after ChEMBL document CHEMBL4622972 (J Med Chem, 2020).)
